We go through one compound from US7405220B2, “Pyrazolopyrimidines” (Hoffmann-La Roche Inc., priority 2004, dated 2008).

One assay has as its target human cyclin D1-Cdk4 (Homo sapiens, UniProt P11802). In words: Cdk4 FlashPlate kinase assay (Rb phosphorylation). In kind it is biochemical. The settings on record: recombinant cyclin D1-Cdk4, Rb substrate, 1 μM ATP. On the procedure: (§1) To determine inhibition of Cdk4, Cdk2 and Cdk1 activity, kinase assays were conducted using FlashPlate™ assays (NEN™-Life Science Products). FlashPlate assays were performed using recombinant human cyclin B-Cdk1, human cyclin E-Cdk2 or human cyclin D1-Cdk4 complexes. GST-cyclinE (GST-cycE), Cdk2, GST-cyclinB (GST-cycB), Cdk1, GST-Cdk4 and cyclin D1 (cycD1) cDNA clones in baculovirus vectors were provided by Dr. W. Harper at the Baylor College of Medicine, Houston, Tex. Proteins were co-expressed in High Five™ insect cells and the complex was purified on glutathione Sepharose resin (Pharmacia, Piscataway, N.J.) as previously described (Harper, J. W. et al. Cell 1993, 75, 805-816). A 6×-Histidine tagged truncated form of retinoblastoma (Rb) protein (amino acid 386-928) was used as the substrate for the cycD1-Cdk4, cycB-Cdk1 and the cycE-Cdk2 assays (the expression plasmid was provided by Dr. Veronica Sullivan, Department of Molecular Virology, Roche Research Centre, Welwyn Garden City, United Kingdom). The Rb protein is a natural substrate for phosphorylation by Cdk4, Cdk2 and Cdk1 (see Herwig and Strauss Eur. J. Biochem. Vol. 246 (1997) pp. 581-601 and the references cited therein).
(§2) The expression of the 62 Kd protein was under the control of an IPTG inducible promoter in an M15 E. coli strain. Cells were lysed by sonication and purification was carried out by binding lysates at pH 8.0 to a Ni-chelated agarose column pretreated with 1 mM imidazole. The resin was then washed several times with incrementally decreasing pH buffers to pH 6.0, and eluted with 500 mM imidazole. Eluted protein was dialysed against 20 mM HEPES pH 7.5, 30% glycerol, 200 mM NaCl, and 1 mM DTT. Purified Rb fusion protein stocks were quantitated for protein concentration, aliquoted, and stored at −70° C.
(§3) For all three kinase assays reported herein, 96-well FlashPlates were coated with Rb protein at 10 μg/ml, using 100 μl per well. Plates were incubated at 4° C. overnight or at room temperature for 3 hours on a shaker. To control for nonspecific phosphorylation, one row of wells was coated with 100 μl/well coating buffer (20 mM HEPES, 0.2 M NaCl). Plates were then washed twice with wash buffer (0.01% Tween 20 in phosphate-buffered saline). Compounds to be tested (“test compounds”) were added to the wells at 5× final concentration. Reactions were initiated by immediate addition of 40 μl reaction mix (25 mM HEPES, 20 mM MgCl2, 0.002% Tween 20, 2 mM DTT, 1 μM ATP, 4 nM 33P-ATP) and a sufficient amount of enzyme to give counts that were at least 10-fold above background. Plates were incubated at room temperature on a shaker for 30 minutes. Plates were washed four times with the wash buffer, sealed, and counted on the TopCount scintillation counter (Packard Instrument Co., Downers Grove, Ill.]. The percent inhibition of Rb phosphorylation, which is a measure of the inhibition of Cdk activity, was determined according to the following formula: […]
(§4) where “test compound” refers to the average counts per minute of the test duplicates, “nonspecific” refers to the average counts per minute when no CyclinD/Cdk4, etc., was added, and “total” refers to the average counts per minute when no compound was added. The IC50 value is the concentration of test compound that reduces by 50% the protein-kinase induced incorporation of the radiolabel under the test conditions described.

The target of a further assay is human cyclin B-Cdk1 (Homo sapiens, UniProt P06493). The experiment in a line: Cdk1 FlashPlate kinase assay (Rb phosphorylation). In kind it is biochemical. The settings on record: recombinant cyclin B-Cdk1, Rb substrate, 1 μM ATP. On the procedure: as §1, §2, §3, §4
human cyclin B-Cdk1, sequence (P06493 whole entry): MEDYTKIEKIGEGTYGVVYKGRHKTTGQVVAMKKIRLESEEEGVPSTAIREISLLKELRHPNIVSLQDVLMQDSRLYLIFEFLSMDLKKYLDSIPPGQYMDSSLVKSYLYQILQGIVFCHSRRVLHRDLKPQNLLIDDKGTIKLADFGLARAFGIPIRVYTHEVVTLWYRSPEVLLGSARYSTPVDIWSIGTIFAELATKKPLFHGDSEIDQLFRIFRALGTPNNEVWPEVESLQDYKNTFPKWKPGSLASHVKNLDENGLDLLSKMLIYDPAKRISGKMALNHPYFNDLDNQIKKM
human cyclin B-Cdk1, sequence (P14635 whole entry partner): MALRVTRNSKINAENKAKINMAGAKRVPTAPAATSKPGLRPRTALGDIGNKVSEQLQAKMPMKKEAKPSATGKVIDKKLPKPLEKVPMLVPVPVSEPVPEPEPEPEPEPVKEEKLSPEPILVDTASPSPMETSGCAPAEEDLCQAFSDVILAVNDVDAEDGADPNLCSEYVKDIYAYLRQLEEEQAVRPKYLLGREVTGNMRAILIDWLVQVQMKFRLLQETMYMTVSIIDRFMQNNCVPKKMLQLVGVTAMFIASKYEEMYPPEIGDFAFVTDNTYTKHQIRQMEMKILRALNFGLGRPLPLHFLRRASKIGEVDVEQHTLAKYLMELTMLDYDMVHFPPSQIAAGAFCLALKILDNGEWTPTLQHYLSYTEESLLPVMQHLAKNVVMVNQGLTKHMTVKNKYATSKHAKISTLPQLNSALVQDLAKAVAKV
In assay [1] the test system is HCT116, a colorectal carcinoma cell line. In words: Tetrazolium dye (MTT) proliferation assay. In kind it is cell-based. The conditions noted are these: Homo sapiens, HCT-116; HCT116 cells. The protocol: Proliferation was evaluated by the tetrazolium dye assay according to the procedure of Denizot and Lang (Denizot, F. and Lang, R. J Immunol Methods 1986, 89, 271-277). The cell line used was HCT116, a colorectal carcinoma cell line obtained from the American Type Cell Culture Collection (ATCC; Rockville, Md.). The cells were grown in McCoy's 5A medium supplemented with 10% FCS and L-glutamine.
Cells were plated at the appropriate seeding density to give logarithmic growth over the course of the assay in a 96-well tissue culture plate. Plates were incubated overnight at 37° C. in a humidified incubator with 5% CO2. The next day, test compounds were serially diluted to four times the final concentration in the appropriate medium containing 1.2% DMSO. One-fourth final volume of each dilution was added in duplicate to the plates containing cells. The same volume of 1.2% DMSO in medium was added to a row of “control wells” such that the final concentration of DMSO in each well was 0.3%. Wells to which no cells were added served as the “blank.” Wells to which no inhibitor was added served as “no inhibitor control.” The plates were) returned to the incubator, and at set time points (determined by their growth curves) plates were analyzed as described below.
3-(4,5-dimethylthiazole-2-yl)-2,5-diphenyl-2H-tetrazolium bromide (thiazolyl blue; MTT; Sigma) was added to each well to yield a final concentration of 1 mg/ml. Plates were returned to the incubator for 2.5-3 hours at 37° C. The MTT-containing medium was removed and the resulting formazan metabolite was solubilized in 100% ethanol with shaking for 15 minutes at room temperature. Absorbance readings were taken in a microtiter plate reader (Dynatech and Molecular Devices plate readers were used interchangeably) at a wavelength of 570 nm with a 650 nm reference. Percent inhibition (% INH) is calculated by subtracting the absorbance of the blank well from all wells, then subtracting the ratio of the average absorbance of each test duplicate (SAVE) by the average of the controls (CAVE) from 1.00. The final number is then multiplied by 100 (% INH=(1.00−SAVE/CAVE)×100). The concentration at which 50% inhibition of cell proliferation is obtained (the IC50) is determined from the linear regression of a plot of the logarithm of the concentration versus percent inhibition.

For another assay, the target named is human cyclin E-Cdk2 (Homo sapiens, UniProt P24941). The experiment in a line: Cdk2 FlashPlate kinase assay (Rb phosphorylation). In kind it is biochemical. The settings on record: recombinant cyclin E-Cdk2, Rb substrate, 1 μM ATP. The protocol:
as §1, §2, §3, §4

human cyclin D1-Cdk4, sequence (P11802 whole entry): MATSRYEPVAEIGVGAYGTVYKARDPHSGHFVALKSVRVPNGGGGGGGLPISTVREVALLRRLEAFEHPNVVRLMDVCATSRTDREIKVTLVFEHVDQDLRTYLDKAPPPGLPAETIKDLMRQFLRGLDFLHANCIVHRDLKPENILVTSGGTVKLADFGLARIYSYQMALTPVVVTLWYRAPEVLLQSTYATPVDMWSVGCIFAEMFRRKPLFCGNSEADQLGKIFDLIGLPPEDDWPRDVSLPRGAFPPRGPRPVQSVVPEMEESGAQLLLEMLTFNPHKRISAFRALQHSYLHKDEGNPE
human cyclin D1-Cdk4, sequence (P24385 whole entry partner): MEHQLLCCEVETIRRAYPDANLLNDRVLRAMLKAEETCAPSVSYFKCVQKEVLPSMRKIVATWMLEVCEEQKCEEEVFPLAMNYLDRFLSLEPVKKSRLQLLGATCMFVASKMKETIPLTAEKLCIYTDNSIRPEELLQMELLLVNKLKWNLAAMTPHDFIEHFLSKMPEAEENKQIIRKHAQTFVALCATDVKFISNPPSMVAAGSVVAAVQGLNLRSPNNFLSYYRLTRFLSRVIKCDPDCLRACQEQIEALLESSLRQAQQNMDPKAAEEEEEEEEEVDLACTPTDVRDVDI

`CS(=O)(=O)N1CCC(Nc2ncc3c(-c4cccc(F)c4)n[nH]c3n2)CC1` [Example 31, [3-(3-Fluoro-phenyl)-1H-pyrazolo[3,4-d]pyrimidin-6-yl]-(1-methanesulfonyl-piperidin-4-yl)-amine]: the IC50 on human cyclin D1-Cdk4 came out at 18.5 nM; at human cyclin B-Cdk1, 1140 nM; in assay [1], 30000 nM; on human cyclin E-Cdk2 it was 230 nM.
